The record followed here is PMC3344887 (PLoS ONE, 2012).

Like-named read-outs stand apart in the source and are kept apart here.

By Cmax is commonly meant the maximum level reached in the sampled fluid or tissue. A word on the AUC(0-t): it is exposure summed from dosing to a finite time, without extrapolation to infinity. By AUC(0-inf) is commonly meant the area under the concentration-time curve extrapolated to infinity. High values mean high exposure, low ones low exposure. The term half-life denotes how long it takes for the measured level to halve. High values mean slow decline, low ones rapid decline. Usually Tmax stands for the time at which the peak concentration occurs. A word on the Ki: it is the equilibrium dissociation constant of an inhibitor or competing ligand from its target. A lower Ki goes with higher affinity.

One data set is described as follows: clinical. The settings on record: human, in vivo. How it is done: Identical placebo (lactose) capsules were prepared. […] Drugs were administered without food.
Plasma concentrations of copeptin were also determined in this study as reported elsewhere. […] No hydrolysis was performed. Thus, the values for HMMA represent the drug concentrations of the non-conjugated metabolite. All blood samples were collected on ice and centrifuged within 10 min at 4°C. The plasma was then stored at –20°C until the analysis.
Cmax and tmax were obtained directly from the observed concentration-time curves. […] Terminal elimination half-life (t 1/2) was calculated using λz and the equation t1/2 = ln2/λz. The area under the plasma concentration-time curve up to 6 h (AUC0-6h) was calculated using the linear trapezoidal rule. The AUC0–∞ was determined by extrapolation of AUC0–6h using λz. The PK parameters were determined using the PK functions for Excel (Microsoft, Redmont, CA, USA). Plasma concentrations were only determined up to 6 h after MDMA administration because the aim of the study was to assess potential changes in MDMA plasma levels while relevant pharmacodynamic effects or MDMA were present.

The subject of a further data set is healthy subjects. Kind of data set: Soft-link PK-PD model, MDMA plasma concentration vs VAS any drug effect. It is filed as in vivo, humans. The settings on record: for EC50: Homo sapiens. An excerpt:
PK-PD modeling: First, a soft-link PK-PD model was used to evaluate the in vivo relationship between the concentration of MDMA and subjective effect of the drug. The change in the VAS for any drug effect was used as the pharmacodynamic measure in each individual. Because we observed clockwise hysteresis in the effect-concentration relationship over time, we used PK-PD data pairs within the ascending part of the individual curves up to Emax or Cmax. Our estimate of Emax, which should represent the maximal response portion of the dose-response curve, may already have been affected by tolerance. […] Based on the good brain penetration of MDMA and absence of a time lag, we assumed rapid equilibration between plasma and the central compartment (brain). […] The sigmoid Emax model provided a better fit than a simple Emax or linear model. Data pooling was used because only few data pairs were available per subject. Non-linear regression was used to obtain parameter estimates. Second, we also used a hard-link PK-PD model to predict in vivo PD effects based on the in vitro concentration-response data linked to the observed individual in vivo PK. […] Similar to the soft-link PK-PD model, a single compartment PK model (plasma = brain concentration) was used, and only ascending PK or PD values were included. The in vivo data were linked to the PK of each individual, and a mean predicted effect-time curve was established.

The target of the next data set is DAT (Homo sapiens, UniProt Q01959). Kind of data set: Radioligand binding, [3H]-WIN35,428, HEK 293 membranes. Also noted: expressed in transfected cells; host or cells: HEK 293 cells (Invitrogen), stably transfected.
Chain of DAT (Q01959 whole entry): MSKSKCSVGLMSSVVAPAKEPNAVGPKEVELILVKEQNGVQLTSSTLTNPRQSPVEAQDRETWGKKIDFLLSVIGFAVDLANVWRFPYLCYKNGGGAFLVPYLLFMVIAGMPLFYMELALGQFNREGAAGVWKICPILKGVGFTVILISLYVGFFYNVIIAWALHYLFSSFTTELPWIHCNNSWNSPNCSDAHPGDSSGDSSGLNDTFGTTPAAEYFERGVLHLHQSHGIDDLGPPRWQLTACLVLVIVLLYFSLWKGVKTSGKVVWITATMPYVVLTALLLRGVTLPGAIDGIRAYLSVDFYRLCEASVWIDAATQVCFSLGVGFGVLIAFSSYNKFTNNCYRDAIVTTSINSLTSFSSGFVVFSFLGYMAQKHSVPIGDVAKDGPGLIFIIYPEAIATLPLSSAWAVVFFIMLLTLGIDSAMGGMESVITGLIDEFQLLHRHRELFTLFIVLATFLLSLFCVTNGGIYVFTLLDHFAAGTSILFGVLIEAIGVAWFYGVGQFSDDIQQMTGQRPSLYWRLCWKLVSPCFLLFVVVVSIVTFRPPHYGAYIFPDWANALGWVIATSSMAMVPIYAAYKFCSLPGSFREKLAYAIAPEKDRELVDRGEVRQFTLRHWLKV

Consider `CNC(C)Cc1ccc2c(c1)OCO2` (stereo not drawn) [MDMA, 3,4-methylenedioxymethamphetamine], for which the Cmax in “clinical” amounted to 254 ± 13.6 ng/mL; in “clinical” (125 mg), 221 ± 11.6 ng/mL. The AUC(0-t) in “clinical” (AUC0-6) turned out to be 1110 ± 57.2 ng·h/mL; in the data set “clinical” (AUC0-6, Placebo-MDMA session, mean±SEM, n=16), 953 ± 45.9 ng·h/mL. In addition, the AUC(0-inf) in the data set “clinical” (AUC(0-∞)) amounted to 2910 ± 276 ng·h/mL. Besides, the half-life in “clinical” (T1/2) is 428 ± 24 min; in the data set “clinical” (T1/2, Placebo-MDMA session, mean±SEM, n=16), 490 ± 44.4 min. Moreover, the Tmax in the data set “clinical” came to 2.66 ± 0.29 h; in the data set “clinical” (Placebo-MDMA session, mean±SEM, n=16), 2.34 ± 0.19 h. Besides, the EC50 with healthy subjects (second statement, in brackets, read-out: EC50 of the PK-PD curve in humans) was determined as 380 nM; in the data set with healthy subjects (second statement, read-out: EC50 of the PK-PD curve in humans), 0.074 µg/mL; in the data set with healthy subjects (sigmoid Emax model, in brackets, read-out: EC50 of in vivo PK-PD relationship (MDMA plasma concentration)), 480 nM; with healthy subjects (sigmoid Emax model, pooled data, read-out: EC50 of in vivo PK-PD relationship (MDMA plasma concentration)) it was 0.0925 ± 0.0076 µg/mL. In the data set with healthy subjects (sigmoid Emax model, pooled data), the “Emax of in vivo PK-PD relationship (any drug effect)” value amounted to 93.8±7.3%. On DAT, this compound registered an inhibition constant (Ki) of 6.52 ± 2.24 µM.
